Measured values published in US20110224229A1, “Novel Crystalline Form” (AstraZeneca AB, priority 2010, published 2011).
“Also recorded” adds a separate entry of the source.

What was measured:
[1] = Humidity interaction, Gravimetrical Vapour Sorption (GVS); assay type: physicochemical; details: for hygroscopicity, defined as the water uptake by a dried sample when the relative humidity is increased from 0% to 80%: 0% to 80% RH at 25° C.; for hygroscopicity (in words) / water uptake following exposure to 80% relative humidity (RH): GVS, 80% RH
Description: The gravimetric responses of test samples to changes in humidity were investigated using a TGA 5000 (TA Instruments) Gravimetrical Vapour Sorption (GVS). The temperature was held at 25° C. throughout the experiments. The relative humidity (RH) was raised in steps (of 5 or 10%) up to 90% RH and lowered back to 0% RH in two cycles. Each level of RH was held until the equilibrium condition (sample weight change<0.0005 wt % per 10 minutes) was reached. 5-10 mg of the test sample was placed in the cup and evaluated. The hygroscopicity was calculated as the relative change in weight of the sample between 0% RH at the start of the second cycle and 80% RH during the increase of humidity in the second cycle.
The hygroscopicity of a sample is dependent on factors in addition to the inherent properties of the pure solid form itself, for example the purity and the crystallinity of the sample will have some impact on the result.

[2] = Slurrying in water or solvents, hydrate/solvate formation; assay type: physicochemical
[3] = target: T1, Human Neutrophil Elastase (HNE) (Homo sapiens, UniProt P08246); test: Human Neutrophil Elastase Quenched-FRET Assay; assay type: biochemical; details: compound dissolved in DMSO; n=7; read-out: IC50 value for inhibition of human neutrophil elastase activity
T1 construct: Human Neutrophil Elastase (HNE) purified from serum; purchased Calbiochem 324681; host or cells: natural source
T1 sequence (P08246 30-267): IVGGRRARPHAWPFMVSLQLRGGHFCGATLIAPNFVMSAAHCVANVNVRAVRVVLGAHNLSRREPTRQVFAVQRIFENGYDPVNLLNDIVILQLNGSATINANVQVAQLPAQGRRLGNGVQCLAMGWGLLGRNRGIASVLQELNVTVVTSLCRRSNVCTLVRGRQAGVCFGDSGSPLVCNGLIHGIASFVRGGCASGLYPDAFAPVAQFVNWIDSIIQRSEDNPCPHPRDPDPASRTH
Description: The assay uses Human Neutrophil Elastase (HNE) purified from serum (Calbiochem art. 324681; Ref. Baugh, R. J. et al., 1976, Biochemistry. 15, 836-841). HNE was stored in 50 mM sodium acetate (NaOAc), 500 mM sodium chloride (NaCl), pH 5.5 with added 50% glycerol at −20° C. The protease substrate used was Elastase Substrate V Fluorogenic, MeOSuc-AAPV-AMC (Calbiochem art. 324740; Ref. Castillo, M. J. et al., 1979, Anal. Biochem. 99, 53-64). The substrate was stored in dimethyl sulfoxide (DMSO) at −20° C. The assay additions were as follows: Test compounds and controls were added to black 96-well flat-bottom plates (Greiner 655076), 1.0 μL in 100% DMSO, followed by 30 μL HNE in assay buffer with 0.01% Triton (trade mark) X-100 detergent. The assay buffer constitution was: 100 mM Tris(hydroxymethyl)aminomethane (TRIS) (pH 7.5) and 500 mM NaCl. The enzyme and the compounds were incubated at room temperature for 15 minutes. Then 30 μl substrate in assay buffer was added. The assay was incubated for 90 minutes at room temperature. The concentrations of HNE enzyme and substrate during the incubation were 0.17 nM and 100 μM, respectively. […] Fluorescence was measured on a Wallac EnVision instrument at settings: Excitation 380 nm, Emission 460 nm. IC50 values were determined using Xlfit curve fitting using model 203.

CCNC(=O)c1nc(-c2ccnn2-c2ccc(C#N)cc2)c(C)n(-c2cccc(C(F)(F)F)c2)c1=O [Compound (I) Form A, 6-[2-(4-Cyano-phenyl)-2H-pyrazol-3-yl]-5-methyl-3-oxo-4-(3-trifluoromethyl-phenyl)-3,4-dihydro-pyrazine-2-carboxylic acid ethylamide Form A]
hygroscopicity, defined as the water uptake by a dried sample when the relative humidity is increased from 0% to 80% [1]: 1.6 % (w/w) | hygroscopicity (in words) [1]: slightly hygroscopic; also recorded: non-hygroscopic | water uptake following exposure to 80% relative humidity (RH) [1]: about 1.6 % by weight | solvate/hydrate formation when slurried in water, ethanol or acetonitrile ([2]; slurried in water, ethanol or acetonitrile, XRPD): forms variable, non-stoichiometric solvates with acetonitrile or ethanol and hydrates with water

CCNC(=O)c1nc(-c2ccnn2-c2ccc(C#N)cc2)c(C)n(-c2cccc(C(F)(F)F)c2)c1=O [Compound (I) Form B, 6-[2-(4-Cyano-phenyl)-2H-pyrazol-3-yl]-5-methyl-3-oxo-4-(3-trifluoromethyl-phenyl)-3,4-dihydro-pyrazine-2-carboxylic acid ethylamide Form B]
hygroscopicity, defined as the water uptake by a dried sample when the relative humidity is increased from 0% to 80% [1]: 0.08 % (w/w) | hygroscopicity (in words) [1]: substantially non-hygroscopic | water uptake following exposure to 80% relative humidity (RH) [1]: about 0.08 % by weight | hydrate formation when slurried in water ([2]; slurried in water for 4 weeks): did not form hydrates

CCNC(=O)c1nc(-c2ccnn2-c2ccc(C#N)cc2)c(C)n(-c2cccc(C(F)(F)F)c2)c1=O [Compound (I), 6-[2-(4-Cyano-phenyl)-2H-pyrazol-3-yl]-5-methyl-3-oxo-4-(3-trifluoromethyl-phenyl)-3,4-dihydro-pyrazine-2-carboxylic acid ethylamide]
IC50 [3]: 270 pM
